Experimental findings from ChEMBL document CHEMBL4699460, “Integrating DNA-encoded chemical libraries with virtual combinatorial library screening: Optimizing a PARP10 inhibitor” (Bioorg Med Chem Lett, 2020) are described below.

In test [1] the target is T1, Protein mono-ADP-ribosyltransferase PARP8 (Homo sapiens) (UniProt Q8N3A8).
T1 sequence (whole entry): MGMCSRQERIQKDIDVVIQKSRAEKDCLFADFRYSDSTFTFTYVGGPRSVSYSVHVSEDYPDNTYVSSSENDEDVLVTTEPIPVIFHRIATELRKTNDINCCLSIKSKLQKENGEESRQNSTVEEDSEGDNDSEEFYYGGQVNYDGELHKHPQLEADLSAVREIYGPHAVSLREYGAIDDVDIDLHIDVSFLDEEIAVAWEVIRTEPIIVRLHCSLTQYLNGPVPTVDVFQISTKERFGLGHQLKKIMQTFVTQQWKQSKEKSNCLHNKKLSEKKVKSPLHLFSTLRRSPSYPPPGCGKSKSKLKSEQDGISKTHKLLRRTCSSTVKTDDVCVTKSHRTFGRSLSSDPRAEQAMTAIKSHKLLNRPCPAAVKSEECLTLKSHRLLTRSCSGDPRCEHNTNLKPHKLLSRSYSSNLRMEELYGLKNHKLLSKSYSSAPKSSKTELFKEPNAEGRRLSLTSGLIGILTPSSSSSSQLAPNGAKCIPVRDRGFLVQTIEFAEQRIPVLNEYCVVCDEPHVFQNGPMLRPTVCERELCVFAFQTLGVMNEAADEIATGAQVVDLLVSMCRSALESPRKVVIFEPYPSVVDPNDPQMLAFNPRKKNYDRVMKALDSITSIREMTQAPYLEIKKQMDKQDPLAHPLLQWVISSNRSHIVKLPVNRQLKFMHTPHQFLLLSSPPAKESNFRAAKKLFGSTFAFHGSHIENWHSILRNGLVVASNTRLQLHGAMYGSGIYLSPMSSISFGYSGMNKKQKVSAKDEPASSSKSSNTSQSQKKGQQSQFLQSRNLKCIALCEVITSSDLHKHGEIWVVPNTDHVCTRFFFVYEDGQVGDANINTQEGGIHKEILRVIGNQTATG
Description: Inhibition of PARP8 (unknown origin) assessed as reduction in NAD+-dependent ADP ribosylation using histone as substrate at 10 uM incubated for 1 hr in presence of biotinylated NAD+ and activated DNA by chemiluminescence based microplate reader assay relative to control.

The target in test [2] is T2, Protein mono-ADP-ribosyltransferase TIPARP (Homo sapiens) (UniProt Q7Z3E1).
T2 sequence (whole entry): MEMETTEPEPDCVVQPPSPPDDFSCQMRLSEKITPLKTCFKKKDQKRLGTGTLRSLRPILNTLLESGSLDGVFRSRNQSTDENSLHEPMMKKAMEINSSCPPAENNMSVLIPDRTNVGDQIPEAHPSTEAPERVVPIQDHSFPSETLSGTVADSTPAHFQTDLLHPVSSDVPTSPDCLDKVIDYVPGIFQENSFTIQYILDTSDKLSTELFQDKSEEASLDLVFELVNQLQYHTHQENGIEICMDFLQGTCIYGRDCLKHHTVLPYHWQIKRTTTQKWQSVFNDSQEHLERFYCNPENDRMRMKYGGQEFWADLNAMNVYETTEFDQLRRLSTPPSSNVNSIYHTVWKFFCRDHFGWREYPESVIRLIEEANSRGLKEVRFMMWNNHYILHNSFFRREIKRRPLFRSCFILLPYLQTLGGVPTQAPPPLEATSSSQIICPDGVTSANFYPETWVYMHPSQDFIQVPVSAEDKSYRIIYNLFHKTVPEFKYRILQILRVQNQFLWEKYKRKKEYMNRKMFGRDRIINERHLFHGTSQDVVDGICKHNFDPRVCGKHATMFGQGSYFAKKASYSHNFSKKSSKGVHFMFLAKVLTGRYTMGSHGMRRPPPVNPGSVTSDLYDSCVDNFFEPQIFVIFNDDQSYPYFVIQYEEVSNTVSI
Kind of test: Inhibition of N-terminal FLAG-tagged human PARP7 (400 to 657 residues) expressed in baculovirus infected Sf9 cells assessed as reduction in NAD+-dependent ADP ribosylation using histone as substrate at 10 uM incubated for 1 hr in presence of biotinylated NAD+ and activated DNA by chemiluminescence based microplate reader assay relative to control.

Test [3] addresses Poly [ADP-ribose] polymerase 1 (Homo sapiens) (UniProt P09874). Kind of test: Inhibition of N-terminal GST tagged human PARP1 (2 to 1041 residues) expressed in baculovirus infected Sf9 cells assessed as reduction in NAD+-dependent ADP ribosylation using histone as substrate at 10 uM incubated for 1 hr in presence of biotinylated NAD+ and activated DNA by chemiluminescence based microplate reader assay relative to control.

Test [4] concerns the target T3, Protein mono-ADP-ribosyltransferase PARP15 (Homo sapiens) (UniProt Q460N3).
T3 sequence (whole entry): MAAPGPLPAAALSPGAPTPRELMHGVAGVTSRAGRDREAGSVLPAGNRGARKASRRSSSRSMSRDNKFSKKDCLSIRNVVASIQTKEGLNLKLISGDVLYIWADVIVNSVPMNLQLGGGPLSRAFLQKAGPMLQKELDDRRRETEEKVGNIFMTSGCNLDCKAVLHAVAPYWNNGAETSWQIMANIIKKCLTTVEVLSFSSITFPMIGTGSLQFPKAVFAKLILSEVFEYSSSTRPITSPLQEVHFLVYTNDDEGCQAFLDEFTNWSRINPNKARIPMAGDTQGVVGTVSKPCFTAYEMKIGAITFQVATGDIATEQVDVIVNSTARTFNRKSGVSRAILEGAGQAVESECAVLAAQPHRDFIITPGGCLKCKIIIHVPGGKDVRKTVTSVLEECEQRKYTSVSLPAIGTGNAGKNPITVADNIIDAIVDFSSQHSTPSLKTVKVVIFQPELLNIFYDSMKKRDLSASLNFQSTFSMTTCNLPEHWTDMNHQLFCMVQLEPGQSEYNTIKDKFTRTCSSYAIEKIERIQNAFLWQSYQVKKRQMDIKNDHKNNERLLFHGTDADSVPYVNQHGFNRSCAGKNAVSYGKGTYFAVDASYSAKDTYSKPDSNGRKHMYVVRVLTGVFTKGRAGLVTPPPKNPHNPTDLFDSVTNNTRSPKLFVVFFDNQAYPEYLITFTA
Description: Inhibition of N-terminal GST-tagged human PARP15 (221 to 444 residues) expressed in Escherichia coli assessed as reduction in NAD+-dependent ADP ribosylation using histone as substrate at 10 uM incubated for 1 hr in presence of biotinylated NAD+ and activated DNA by chemiluminescence based microplate reader assay relative to control.

In test [5] the target is Protein mono-ADP-ribosyltransferase PARP6 (Homo sapiens) (UniProt Q2NL67). Description: Inhibition of N-terminal GST tagged full length human PARP6 expressed in baculovirus infected Sf9 cells assessed as reduction in NAD+-dependent ADP ribosylation using histone as substrate at 10 uM incubated for 1 hr in presence of biotinylated NAD+ and activated DNA by chemiluminescence based microplate reader assay relative to control.
Chain of Protein mono-ADP-ribosyltransferase PARP6 (Homo sapiens) (Q2NL67 whole entry): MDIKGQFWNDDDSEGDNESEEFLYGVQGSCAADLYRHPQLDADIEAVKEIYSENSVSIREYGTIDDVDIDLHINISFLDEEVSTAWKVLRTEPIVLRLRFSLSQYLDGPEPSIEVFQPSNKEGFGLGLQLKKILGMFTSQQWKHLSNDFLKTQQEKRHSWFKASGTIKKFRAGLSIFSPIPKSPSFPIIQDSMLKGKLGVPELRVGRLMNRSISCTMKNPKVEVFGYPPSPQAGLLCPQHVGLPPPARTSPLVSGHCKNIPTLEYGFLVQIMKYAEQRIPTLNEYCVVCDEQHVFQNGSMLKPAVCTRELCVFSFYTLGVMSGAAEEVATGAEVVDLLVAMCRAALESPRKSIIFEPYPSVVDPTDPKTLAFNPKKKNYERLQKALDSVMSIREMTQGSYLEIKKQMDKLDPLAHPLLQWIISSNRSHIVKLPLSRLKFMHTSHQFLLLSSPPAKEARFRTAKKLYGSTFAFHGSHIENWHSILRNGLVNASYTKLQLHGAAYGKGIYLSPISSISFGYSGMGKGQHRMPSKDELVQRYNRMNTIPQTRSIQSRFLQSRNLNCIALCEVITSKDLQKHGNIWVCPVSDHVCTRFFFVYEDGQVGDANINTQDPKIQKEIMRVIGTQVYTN

Structures are written as SMILES.

Chain of Poly [ADP-ribose] polymerase 1 (Homo sapiens) (P09874 whole entry, the tested form may be a part): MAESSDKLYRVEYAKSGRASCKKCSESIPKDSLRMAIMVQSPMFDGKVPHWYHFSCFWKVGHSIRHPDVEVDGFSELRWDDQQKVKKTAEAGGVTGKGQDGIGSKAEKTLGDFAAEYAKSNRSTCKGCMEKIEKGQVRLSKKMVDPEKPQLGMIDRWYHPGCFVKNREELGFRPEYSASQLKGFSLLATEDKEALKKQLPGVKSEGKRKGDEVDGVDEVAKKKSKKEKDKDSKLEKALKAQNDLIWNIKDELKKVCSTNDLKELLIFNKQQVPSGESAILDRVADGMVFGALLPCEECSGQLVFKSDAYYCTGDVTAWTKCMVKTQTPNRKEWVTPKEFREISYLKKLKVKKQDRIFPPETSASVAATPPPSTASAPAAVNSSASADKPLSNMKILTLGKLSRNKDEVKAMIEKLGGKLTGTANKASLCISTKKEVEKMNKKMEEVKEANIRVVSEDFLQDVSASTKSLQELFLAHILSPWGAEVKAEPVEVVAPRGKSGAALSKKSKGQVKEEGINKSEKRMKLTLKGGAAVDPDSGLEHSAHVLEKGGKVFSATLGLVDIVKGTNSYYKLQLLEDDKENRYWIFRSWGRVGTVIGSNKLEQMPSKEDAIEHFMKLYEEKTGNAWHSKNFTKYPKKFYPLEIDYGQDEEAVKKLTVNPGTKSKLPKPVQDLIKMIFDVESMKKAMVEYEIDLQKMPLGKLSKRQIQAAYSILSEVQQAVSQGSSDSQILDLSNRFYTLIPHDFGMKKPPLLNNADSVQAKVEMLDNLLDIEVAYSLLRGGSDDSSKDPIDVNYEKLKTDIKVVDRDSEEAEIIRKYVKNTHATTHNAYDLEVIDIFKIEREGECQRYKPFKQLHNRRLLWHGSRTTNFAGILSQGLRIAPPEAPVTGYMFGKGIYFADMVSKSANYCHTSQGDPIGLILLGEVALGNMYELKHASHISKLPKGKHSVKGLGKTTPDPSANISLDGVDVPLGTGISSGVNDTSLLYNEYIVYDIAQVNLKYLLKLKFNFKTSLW

Consider `CNC(=O)[C@H](CNC(=O)CCc1nc2ccccc2[nH]c1=O)NC(=O)c1ccc2c(c1)CCCC2=O`, for which the inhibition in test [1], in test [2], in test [3], in test [4] and in test [5] was less than 25% each time.
In the case of `CC1(CNC(=O)COc2cccc3c2CCCC3=O)CCN(C(=O)CCc2nc3ccccc3[nH]c2=O)CC1`, the inhibition (as a rule, the relative decrease from the control value, in per cent) in test [1] was 5%; in test [2] it was greater than 50%; in test [3], greater than 50%; in test [4], 10%; in test [5], 0%.
